Reference: patent US8293771B2, “p38 MAP kinase inhibitors” (Respivert Ltd., priority 2008, dated 2012)

Tests used:
[1] = test system: LPS-induced neutrophil accumulation; assay: LPS-induced neutrophilia in the mouse; type: in vivo
[2] = test system: Differentiated U937 cells; assay: LPS-induced TNFα release in differentiated U937 cells; type: cell-based; details: Homo sapiens, U-937; 0.1 ug/ml LPS, 4 hrs; compound pre-incubated 2 hrs
Method: U937 cells, human monocytic cell line, were differentiated to macrophage-type cells by incubation with phorbol myristate acetate (PMA; 100 ng/ml) for 48 to 72 hours. Where appropriate, cells were pre-incubated with final concentrations of compound for 2 hrs. Cells were then stimulated with 0.1 ug/ml of LPS (from E. Coli: O111:B4, Sigma) for 4 hrs, and the supernatant collected for determination of TNFα concentration by sandwich ELISA (Duo-set, R&D systems). THP-1, human monocytic cell line, was also used for this assay. THP-1 cells were stimulated with 1 ug/ml of LPS (from E. Coli: O111:B4, Sigma) for 4 hrs, and the supernatant collected for determination of TNFα concentration.

[3] = test system: neutrophil and macrophage accumulation into airways of mice exposed to cigarette smoke; assay: Cigarette smoke model; type: in vivo, A/J mice; details: intra-nasal, twice daily for 3 days
Method: A/J mice (males, 5 weeks old) were exposed to cigarette smoke (4% cigarette smoke, diluted with compressed air) for 30 min/day for 11 days using a Tobacco Smoke Inhalation Experiment System for small animals (Model SIS-CS; Sibata Scientific Technology, Tokyo, Japan). Test substances were given intra-nasally (35 μl of solution in 50% DMSO/PBS) and therapeutically twice daily for 3 days after the final cigarette smoke exposure. Twelve hours after the last dosing, animals were anesthetized, the trachea cannulated and bronchoalveolar lavage fluid (BALF) was collected. The numbers of alveolar macrophages and neutrophils were determined by FACS analysis (EPICS® ALTRA II, Beckman Coulter, Inc., Fullerton, Calif., USA) using anti-mouse MOMA2 antibody (macrophage) or anti-mouse 7/4 antibody (neutrophil).
The results are shown in FIG. 3 for activated alveolar macrophages and in FIG. 4 for neutrophils. Data for cell numbers are shown as the mean±SEM.

[4] = test system: ovalbumin-mediated lung function changes (sGaw); assay: Ovalbumin challenge/parainfluenza infection model (in vivo model for steroid resistance); design: species or system Dunkin-Hartley guinea-pigs
Method: Male Dunkin-Hartley guinea-pigs (300-350 g, n=6/group) were sensitised with 100 μg ovalubumin (OVA)+100 mg Al2(OH)3 in 1 ml normal saline (i.p.) on days 2 and 6. Parainfluenza virus (PIV-3; 10^6 infectious units) or media without virus was nasally instilled on days 11 and 12. Animals were treated with nebulised fluticasone propionate at a dose of 1.5 mg per day. […] All animals were challenged for 1 h with nebulised OVA (10 μg/ml) on day 15 and repeated measurements of specific airways conductance (sGaw) were made over a 24 h period using whole body plethysmography. Measurements of sGaw after OVA challenge are plotted as % change from baseline.

[5] = test system: Differentiated U937 cells; assay: MTT assay in differentiated U937 cells; type: cell-based, human; details: 4, 24 h (10 ug/ml)
Method: Differentiated U937 cells were pre-incubated with compound for 4 hrs in 5% FCS or 10% FCS for 24 hrs and 72 hrs. The supernatant was replaced with 200 ul of new media and 10 ul of MTT stock solution (5 mg/ml) added to each well. After 1 hr incubation, the media were removed, 200 ul of DMSO added to each well and the plates were shaken lightly for 1 hour prior to reading the absorbance at 550 nm.
The percentage loss of cell viability was calculated for each well relative to vehicle (0.5% DMSO)-treatment. Consequently an apparent increase in cell viability for drug treatment relative to vehicle is tabulated as a negative percentage.

Row | Structure (SMILES) | Inhibition of LPS-induced neutrophil accumulation ([1]; mouse, intra tracheal pre-dosing, BALF 8 hours after LPS) | Duration of effect on LPS-induced neutrophil accumulation ([1]; mouse, pre-dose time before LPS) | IC50 [2] | Efficacy in cigarette smoke model of steroid-resistant inflammation [3] | Efficacy in ovalbumin challenge/parainfluenza model of steroid-resistant inflammation ([4]; guinea pigs, PIV3 inoculated, 4.5 mg per day nebulised) | Differentiated U937 cells MTT assay [5] | inhibition at 50 µg/mL ([1]; Mus musculus, Neutrophil, 50 μg/ml (35 μl, bid)) | Ovalbumin-mediated lung function changes ([4]; sensitized animals treated with PIV3 medium (no virus), nebulised 1.5 mg per day)
1 | COCC(=O)Nc1cc(COc2ccc(NC(=O)Nc3cc(C(C)(C)C)nn3-c3ccc(C)cc3)c3ccccc23)ccn1 [Example 1, N-[4-({4-[3-(3-tert-Butyl-1-p-tolyl-1H-pyrazol-5-yl)ureido]naphthalen-1-yloxy}methyl)pyridin-2-yl]-2-methoxyacetamide] | effective in inhibiting LPS-induced neutrophil accumulation | significant inhibition even at 12 or more hours of pre-dosing | 0.88 nM | effective | effective | Negative^2 | – | –
2 | CCC(=O)O[C@]1(C(=O)SCF)[C@H](C)C[C@H]2[C@@H]3C[C@H](F)C4=CC(=O)C=C[C@]4(C)[C@@]3(F)[C@@H](O)C[C@@]21C [fluticasone propionate, reference compound] | – | – | – | – | – | – | > 80% | inhibited ovalbumin-mediated lung function changes
